Laboratory results published in patent US9796711B2, “Substituted pyrazolo[3,4-b]pyridin-6-carboxylic acids and method of use” (AbbVie S.àr.l., priority 2015, dated 2017).

Key:
[1] = molecular target: T1, ΔF508-CFTR (Homo sapiens, UniProt P13569, DEL508-508); test: CFTR cell surface levels using HRP-tagged ΔF508-CFTR expressing CFBE cells, intrinsic corrector capacity; assay type: cell-based; conditions: HRP-tagged ΔF508-CFTR CFBE41o- cells, compounds alone (intrinsic corrector capacity), 20 hours at 33° C.; for % Activation: positive control 3 μM corrector; for EC50: read-out: EC50
T1 construct: host or cells: CFBE41o-, doxycycline-inducible
Procedure, shortened: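 Here the cells express ΔF508-CFTR with horseradish peroxidase inserted in extracellular loop 4, so only rescued channel at the surface gives luminescent signal. Compounds act on their own, 20 h at the reduced temperature of 33 °C; values are percent activity relative to DMSO and a 3 μM corrector.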

[2] = molecular target: T1, ΔF508-CFTR; test: CFTR cell surface levels using HRP-tagged ΔF508-CFTR expressing CFBE cells, in the presence of a co-corrector; assay type: cell-based; conditions: HRP-tagged ΔF508-CFTR expressing CFBE cells, in the presence of 3 μM co-corrector; for EC50: read-out: EC50
Procedure, shortened: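 Cells were seeded with 0.5 μg/mL doxycycline and held 68 h at 37 °C. Test compounds plus 3 μM co-corrector (final 0.1% DMSO) were then added for 20 h at 33 °C. Washed cells received HRP substrate, and luminescence was normalized between DMSO and 3 μM co-corrector controls.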

T1 sequence (P13569 with tags, fused parts or gaps DEL508-508): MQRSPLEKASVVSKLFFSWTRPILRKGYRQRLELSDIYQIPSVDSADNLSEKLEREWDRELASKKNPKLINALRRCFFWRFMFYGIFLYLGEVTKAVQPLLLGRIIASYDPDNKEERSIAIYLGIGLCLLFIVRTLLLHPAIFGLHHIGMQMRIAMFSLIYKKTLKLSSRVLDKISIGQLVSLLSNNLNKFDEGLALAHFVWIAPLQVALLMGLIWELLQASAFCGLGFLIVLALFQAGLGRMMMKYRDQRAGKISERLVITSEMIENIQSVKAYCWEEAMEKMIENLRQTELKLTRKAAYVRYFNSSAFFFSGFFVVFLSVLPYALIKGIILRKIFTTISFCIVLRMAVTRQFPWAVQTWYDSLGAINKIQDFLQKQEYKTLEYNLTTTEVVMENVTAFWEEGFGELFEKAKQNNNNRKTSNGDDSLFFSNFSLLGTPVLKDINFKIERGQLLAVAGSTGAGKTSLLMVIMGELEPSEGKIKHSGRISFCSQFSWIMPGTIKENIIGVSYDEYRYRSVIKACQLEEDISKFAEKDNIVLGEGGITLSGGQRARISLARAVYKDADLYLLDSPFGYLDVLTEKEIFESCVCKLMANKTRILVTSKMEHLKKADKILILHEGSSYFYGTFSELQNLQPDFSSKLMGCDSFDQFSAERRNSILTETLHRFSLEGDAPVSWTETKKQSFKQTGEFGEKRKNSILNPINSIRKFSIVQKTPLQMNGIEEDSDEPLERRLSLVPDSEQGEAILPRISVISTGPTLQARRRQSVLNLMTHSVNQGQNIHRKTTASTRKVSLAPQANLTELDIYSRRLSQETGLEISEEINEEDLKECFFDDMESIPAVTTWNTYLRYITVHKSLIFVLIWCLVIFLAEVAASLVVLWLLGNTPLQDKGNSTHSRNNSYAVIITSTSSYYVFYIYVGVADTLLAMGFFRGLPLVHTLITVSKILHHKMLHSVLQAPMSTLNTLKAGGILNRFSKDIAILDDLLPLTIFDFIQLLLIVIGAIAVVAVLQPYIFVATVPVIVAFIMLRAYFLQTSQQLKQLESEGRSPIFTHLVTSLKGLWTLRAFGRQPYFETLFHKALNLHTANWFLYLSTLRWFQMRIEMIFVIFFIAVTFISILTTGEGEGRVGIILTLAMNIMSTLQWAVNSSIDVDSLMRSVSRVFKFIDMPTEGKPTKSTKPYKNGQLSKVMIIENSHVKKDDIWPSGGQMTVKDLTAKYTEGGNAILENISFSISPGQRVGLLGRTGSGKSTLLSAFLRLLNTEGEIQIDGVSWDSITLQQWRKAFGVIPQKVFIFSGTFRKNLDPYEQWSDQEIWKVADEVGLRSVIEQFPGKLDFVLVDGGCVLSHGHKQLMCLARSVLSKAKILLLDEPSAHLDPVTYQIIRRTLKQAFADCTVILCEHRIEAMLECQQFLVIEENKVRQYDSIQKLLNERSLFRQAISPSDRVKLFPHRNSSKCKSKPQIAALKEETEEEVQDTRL

SMILES: CC(C)c1nn(-c2cccc(F)c2)c2nc(C(=O)O)cc(-c3ccc(N4CCC(C#N)CC4)nc3)c12 [compound 285, 4-[6-(4-cyanopiperidin-1-yl)pyridin-3-yl]-1-(3-fluorophenyl)-3-(propan-2-yl)-1H-pyrazolo[3,4-b]pyridine-6-carboxylic acid]
- % Activation [1]: 255.73%
- EC50 [1]: 655 nM
- % Activation [2]: 428%
- EC50 [2]: 261 nM

SMILES: CC(C)c1nn(-c2cccc(F)c2)c2nc(C(=O)O)cc(-c3ccc(N4CCC(C#N)CC4)cc3)c12 [compound 286, 4-[4-(4-cyanopiperidin-1-yl)phenyl]-1-(3-fluorophenyl)-3-(propan-2-yl)-1H-pyrazolo[3,4-b]pyridine-6-carboxylic acid]
- % Activation [1]: 259.83%
- EC50 [1]: 544 nM
- % Activation [2]: 448.23%
- EC50 [2]: 256 nM

SMILES: CC(C)c1nn(-c2cccc(C(F)(F)F)c2)c2nc(C(=O)O)cc(-c3ccc(N(C)C4CCOCC4)nc3)c12 [compound 287, 4-{6-[methyl(oxan-4-yl)amino]pyridin-3-yl}-3-(propan-2-yl)-1[3-(trifluoromethyl)phenyl]-1H-pyrazolo[3,4-b]pyridine-6-carboxylic acid]
- % Activation [1]: 234.95%
- EC50 [1]: 535 nM
- % Activation [2]: 464.35%
- EC50 [2]: 429 nM

SMILES: Cc1nn(-c2ccccc2)c2nc(C(=O)O)cc(N3CCC4(CC3)CN(C)C(=O)CO4)c12 [compound 288, 3-methyl-4-(4-methyl-3-oxo-1-oxa-4,9-diazaspiro[5.5]undecan-9-yl)-1-phenyl-1H-pyrazolo[3,4-b]pyridine-6-carboxylic acid]
- % Activation [1]: 20.49%
- EC50 [1]: 7500 nM
- % Activation [2]: 128%
- EC50 [2]: 7500 nM

SMILES: COCC1(C)CN(c2cc(C(=O)O)nc3c2c(C)nn3-c2ccccc2)C1 [compound 289, 4-[3-(methoxymethyl)-3-methylazetidin-1-yl]-3-methyl-1-phenyl-1H-pyrazolo[3,4-b]pyridine-6-carboxylic acid]
- % Activation [1]: 46.35%
- EC50 [1]: 2510 nM
- % Activation [2]: 172.8%
- EC50 [2]: 1830 nM

SMILES: Cc1nn(-c2ccccc2)c2nc(C(=O)O)cc(N3CC4CNCCN4C3=O)c12 (stereo not shown) [compound 290, 3-methyl-4-(3-oxohexahydroimidazo[1,5-a]pyrazin-2(3H)-yl)-1-phenyl-1H-pyrazolo[3,4-b]pyridine-6-carboxylic acid]
- % Activation [1]: 12.145%
- EC50 [1]: 7500 nM
- % Activation [2]: 127.35%
- EC50 [2]: 7500 nM

SMILES: COCC1CCN(c2cc(C(=O)O)nc3c2c(C)nn3-c2ccccc2)CC1 [compound 291, 4-[4-(methoxymethyl)piperidin-1-yl]-3-methyl-1-phenyl-1H-pyrazolo[3,4-b]pyridine-6-carboxylic acid]
- % Activation [1]: 168.85%
- EC50 [1]: 1710 nM
- % Activation [2]: 349.55%
- EC50 [2]: 1400 nM

SMILES: CC(=O)NC1CCN(c2cc(C(=O)O)nc3c2c(C)nn3-c2ccccc2)CC1 [compound 292, 4-(4-acetamidopiperidin-1-yl)-3-methyl-1-phenyl-1H-pyrazolo[3,4-b]pyridine-6-carboxylic acid]
- % Activation [1]: 15.095%
- EC50 [1]: 7500 nM
- % Activation [2]: 141.1%
- EC50 [2]: 4170 nM

SMILES: Cc1nn(-c2ccccc2)c2nc(C(=O)O)cc(N3CC4(CCOCC4)C3)c12 [compound 293, 3-methyl-4-(7-oxa-2-azaspiro[3.5]nonan-2-yl)-1-phenyl-1H-pyrazolo[3,4-b]pyridine-6-carboxylic acid]
- % Activation [1]: 90.275%
- EC50 [1]: 2510 nM
- % Activation [2]: 264.9%
- EC50 [2]: 2510 nM

SMILES: COCC1CN(c2cc(C(=O)O)nc3c2c(C)nn3-c2ccccc2)C1 [compound 294, 4-[3-(methoxymethyl)azetidin-1-yl]-3-methyl-1-phenyl-1H-pyrazolo[3,4-b]pyridine-6-carboxylic acid]
- % Activation [1]: 73.275%
- EC50 [1]: 2510 nM
- % Activation [2]: 225.5%
- EC50 [2]: 2510 nM

SMILES: CO[C@@H]1CCN(c2cc(C(=O)O)nc3c2c(C)nn3-c2ccccc2)C1 [compound 295, 4-[(3R)-3-methoxypyrrolidin-1-yl]-3-methyl-1-phenyl-1H-pyrazolo[3,4-b]pyridine-6-carboxylic acid]
- % Activation [1]: 46.475%
- EC50 [1]: 2510 nM
- % Activation [2]: 172.1%
- EC50 [2]: 2510 nM

SMILES: CO[C@H]1CCN(c2cc(C(=O)O)nc3c2c(C)nn3-c2ccccc2)C1 [compound 296, 4-[(3S)-3-methoxypyrrolidin-1-yl]-3-methyl-1-phenyl-1H-pyrazolo[3,4-b]pyridine-6-carboxylic acid]
- % Activation [1]: 29.42%
- EC50 [1]: 4170 nM
- % Activation [2]: 164%
- EC50 [2]: 2510 nM

SMILES: Cc1nn(-c2ccccc2)c2nc(C(=O)O)cc(N3CCC(F)CC3)c12 [compound 297, 4-(4-fluoropiperidin-1-yl)-3-methyl-1-phenyl-1H-pyrazolo[3,4-b]pyridine-6-carboxylic acid]
- % Activation [1]: 50.78%
- EC50 [1]: 2230 nM
- % Activation [2]: 184.07%
- EC50 [2]: 3340 nM

SMILES: Cc1nn(-c2ccccc2)c2nc(C(=O)O)cc(N3CC[C@@H](F)C3)c12 [compound 298, 4-[(3R)-3-fluoropyrrolidin-1-yl]-3-methyl-1-phenyl-1H-pyrazolo[3,4-b]pyridine-6-carboxylic acid]
- % Activation [1]: 52.345%
- EC50 [1]: 2510 nM
- % Activation [2]: 206.45%
- EC50 [2]: 2440 nM

SMILES: Cc1nn(-c2ccccc2)c2nc(C(=O)O)cc(N3CCC(F)(F)C3)c12 [compound 299, 4-(3,3-difluoropyrrolidin-1-yl)-3-methyl-1-phenyl-1H-pyrazolo[3,4-b]pyridine-6-carboxylic acid]
- % Activation [1]: 51.845%
- EC50 [1]: 2510 nM
- % Activation [2]: 194.8%
- EC50 [2]: 2510 nM

SMILES: Cc1nn(-c2ccccc2)c2nc(C(=O)O)cc(N3CC[C@H](F)C3)c12 [compound 300, 4-[(3S)-3-fluoropyrrolidin-1-yl]-3-methyl-1-phenyl-1H-pyrazolo[3,4-b]pyridine-6-carboxylic acid]
- % Activation [1]: 41.065%
- EC50 [1]: 2510 nM
- % Activation [2]: 165%
- EC50 [2]: 2510 nM

SMILES: Cc1nn(-c2ccccc2)c2nc(C(=O)O)cc(N3CCN4C(=O)OCC4C3)c12 (stereo not shown) [compound 301, 3-methyl-4-(3-oxotetrahydro-3H-[1,3]oxazolo[3,4-a]pyrazin-7(1H)-yl)-1-phenyl-1H-pyrazolo[3,4-b]pyridine-6-carboxylic acid]
- % Activation [1]: 12.64%
- EC50 [1]: 7500 nM
- % Activation [2]: 117.35%
- EC50 [2]: 7500 nM

SMILES: Cc1nn(-c2ccccc2)c2nc(C(=O)O)cc(N3CC(N4CCOCC4)C3)c12 [compound 302, 3-methyl-4-[3-(morpholin-4-yl)azetidin-1-yl]-1-phenyl-1H-pyrazolo[3,4-b]pyridine-6-carboxylic acid]
- % Activation [1]: 18.02%
- EC50 [1]: 7500 nM
- % Activation [2]: 131.6%
- EC50 [2]: 7500 nM

SMILES: Cc1nn(-c2ccccc2)c2nc(C(=O)O)cc(N3CCC(NS(C)(=O)=O)CC3)c12 [compound 303, 4-{4-[(methanesulfonyl)amino]piperidin-1-yl}-3-methyl-1-phenyl-1H-pyrazolo[3,4-b]pyridine-6-carboxylic acid]
- % Activation [1]: 10.878%
- EC50 [1]: 7500 nM
- % Activation [2]: 123.5%
- EC50 [2]: 7500 nM

SMILES: Cc1nn(-c2ccccc2)c2nc(C(=O)O)cc(N3CC4CC4C3)c12 (stereo not shown) [compound 304, 4-(3-azabicyclo[3.1.0]hexan-3-yl)-3-methyl-1-phenyl-1H-pyrazolo[3,4-b]pyridine-6-carboxylic acid]
- % Activation [1]: 98.425%
- EC50 [1]: 2510 nM
- % Activation [2]: 254.9%
- EC50 [2]: 1990 nM

SMILES: Cc1nn(-c2ccccc2)c2nc(C(=O)O)cc(N3CCC(C(=O)N4CCCC4)CC3)c12 [compound 305, 3-methyl-1-phenyl-4-[4-(pyrrolidine-1-carbonyl)piperidin-1-yl]-1H-pyrazolo[3,4-b]pyridine-6-carboxylic acid]
- % Activation [1]: 29.97%
- EC50 [1]: 3120 nM
- % Activation [2]: 170.5%
- EC50 [2]: 1440 nM

SMILES: Cc1nn(-c2ccccc2)c2nc(C(=O)O)cc(N3CC4(CCOC4)C3)c12 [compound 306, 3-methyl-4-(6-oxa-2-azaspiro[3.4]octan-2-yl)-1-phenyl-1H-pyrazolo[3,4-b]pyridine-6-carboxylic acid]
- % Activation [1]: 22.69%
- EC50 [1]: 7500 nM
- % Activation [2]: 147.8%
- EC50 [2]: 2510 nM

SMILES: Cc1nn(-c2ccccc2)c2nc(C(=O)O)cc(N3CC4(CCCC4)C3)c12 [compound 307, 4-(2-azaspiro[3.4]octan-2-yl)-3-methyl-1-phenyl-1H-pyrazolo[3,4-b]pyridine-6-carboxylic acid]
- % Activation [1]: 77.423%
- EC50 [1]: 1920 nM
- % Activation [2]: 233.4%
- EC50 [2]: 1540 nM

SMILES: Cc1nn(-c2ccccc2)c2nc(C(=O)O)cc(N3CC4(CCCOC4)C3)c12 [compound 308, 3-methyl-4-(6-oxa-2-azaspiro[3.5]nonan-2-yl)-1-phenyl-1H-pyrazolo[3,4-b]pyridine-6-carboxylic acid]
- % Activation [1]: 59.78%
- EC50 [1]: 2510 nM
- % Activation [2]: 221.85%
- EC50 [2]: 2510 nM

SMILES: Cc1nn(-c2ccccc2)c2nc(C(=O)O)cc(N3CC4(CCCCC4)C3)c12 [compound 309, 4-(2-azaspiro[3.5]nonan-2-yl)-3-methyl-1-phenyl-1H-pyrazolo[3,4-b]pyridine-6-carboxylic acid]
- % Activation [1]: 67.305%
- EC50 [1]: 1330 nM
- % Activation [2]: 237.3%
- EC50 [2]: 1330 nM
